Measurements reported in US20120040378A1, “Meprobromate Immunoassay” (RANDOX LABORATORIES LIMITED, priority 2010, published 2012).
Values after ≈ are worked out from the molar mass of the structure shown.

What was measured:
[1] = cited from earlier work
[2] = test system: Immunalysis immunoassay antibody; conditions: Table 2, Immunalysis; data from Robertson and Marinetti, 2003; cited from earlier work
IDS immunoassay antibody = conditions: Table 2, IDS commercial immunoassay; cited from earlier work
[3] = test system: carisoprodol-specific antibody raised from Immunogen 2; assay: Immunoassay with carisoprodol-specific antibody raised from Immunogen 2 (Table 1); format: binding; conditions: Table 1, antibody raised from Immunogen 2 as titled
[4] = test system: Ig fractions of the antisera raised to Immunogen 4; assay: Competitive ELISA with antibodies raised to Immunogen 4 (Randox immunoassay of the invention); format: binding, sheep; conditions: for % CR: based on 100% specificity to meprobamate; for CR (cross-reactivity): relative to meprobamate = 100%
Experimental: An aqueous solution of Immunogen 4 was formulated with Freund's Complete Adjuvant (FCA) to form an emulsion consisting of 2 mg/ml immunogen in 50% (v/v) FCA. Three sheep were immunised with this emulsion (1° immunisation), 0.25 ml being intramuscularly injected at each of four sites in the rump of each animal. Subsequent immunizations (boosts) contained 1 mg/ml immunogen. All boosts were emulsified in 50% (v/v) Freund's Incomplete Adjuvant (FIA) and were administered in the same manner as the 1° immunisation, at monthly intervals for 1 year. Blood sampling took place 7 to 14 days after each boost. Each sample was processed to produce antiserum, which was further purified by caprylic acid and ammonium sulfate precipitation to yield an immunoglobulin (Ig) fraction. The Ig fraction was evaluated by competitive ELISA microtiter plate assay, as described in Example 16.
The wells of an enhanced binding 96 well polystyrene microtiter plate were coated with a mixture of the Ig fractions of the antisera raised to Immunogen 4, diluted in 10 mM Tris, pH8.5 (125 μl/well). The appropriate antibody coating dilution was determined using standard ELISA checkerboard techniques. The plate was incubated for 2 hours at 37° C., washed 4 times with Tris buffered saline containing Tween 20 (TBST) and tapped dry. Standard solutions of meprobamate, carisoprodol and mebutamate were prepared in TBST at 0, 0.1, 1.0, 5, 10, 25, 50 and 100 ng/ml, and 50 μl of each was added to the appropriate wells.
The conjugate prepared in Example 14 diluted in Tris buffer (pH 7.2) containing EDTA, D-mannitol, sucrose, thimerosal and BSA, was added to each of the wells. The appropriate dilution of conjugate was also determined using standard ELISA checkerboard techniques. The plate was incubated at 25° C. for 1 hour. Excess unbound conjugate was removed by washing 6 times over a 10 minute period with TBST. 125 μl of tetramethylbenzidine (TMB) substrate solution was added to each well of the plate that was then incubated for 20 minutes in the dark at room temperature. The reaction was terminated by addition of 125 μl 0.2M H2SO4 to each well. The absorbance was then measured at 450 nm using a microtiter plate reader.

[5] = Table 2, Randox immunoassay, concentration producing 50% B/B0
[6] = competitive ELISA, Hapten-B-HRP conjugate, absorbance 450 nm, standard concentration producing 50% B/B0

| Structure (SMILES) | serum half-life ([1]; serum) | time detectable in serum ([1]; serum, not detectable beyond this time (Olsen et al 1994)) | excreted unchanged in urine ([1]; single orally administered carisoprodol tablet (350 mg)) | % CR [2] | IC50 [2] | % CR (IDS immunoassay antibody) | IC50 (IDS immunoassay antibody) | % CR [3] | IC50 [3] | % CR ([4]; Table 2, Randox immunoassay) | IC50 [4, 5] | IC50 [4, 6] | CR (cross-reactivity) ([4]; competitive ELISA) | plasma half-life ([1]; plasma) | excreted unchanged in the urine ([1]; urine) |
| --- | --- | --- | --- | --- | --- | --- | --- | --- | --- | --- | --- | --- | --- | --- | --- |
| CCCC(C)(COC(N)=O)COC(=O)NC(C)C (centres unmarked) [carisoprodol] | under 2 hours | ≤ 12 h | less than 1% | 100% | 0.025 µg/mL (≈ 0.096 µM) | 100% | 0.0006 µg/mL (≈ 0.0023 µM) | 57% | 0.015 µg/mL (≈ 0.0576 µM) | 57% | 0.015 µg/mL | 0.01515 µg/mL | 57% | – | – |
| CCC(C)C(C)(COC(N)=O)COC(N)=O (centres unmarked) [mebutamate] | – | – | – | – | – | – | – | – | – | – | – | – | 7% | – | – |
| CCCC(C)(COC(N)=O)COC(N)=O [meprobamate] | – | – | – | 19% | 0.132 µg/mL (≈ 0.605 µM) | <0.01% | >6 µg/mL | 100% | 0.008 µg/mL (≈ 0.0367 µM) | 100% | 0.008 µg/mL | 0.00864 µg/mL | 100% | 6 to 16 h | 10-12% |
